Data as given in patent US6716813B2, “Use of antimicrobial proteins and peptides for the treatment of otitis media and paranasal sinusitis” (priority 2000, dated 2004).
Where two headings read alike, the source gives them in different places. Positions of bridges follow the written chain, without caps; N, C: chain ends. No end group written: not given here.

Assays:
NTHi strain12 = type: cell-based, nontypeable Haemophilus influenzae; conditions: for effect of salt on the growth inhibitory effect against NTHi: 100 mM NaCl in gel
Description: (§1) The bacteria used in the following examples were cultured as follows: Stocks of NTHi12 and M. catarrhalis […] (generous gift of Dr. Xin-Xing Gu) were maintained at -80° C. For experiments, the bacteria were plated on chocolate agar and incubated overnight at 37° C. in 5% CO2. A single colony was then picked and transferred to 10 ml of brain heart infusion (BHI, Becton Dickinson, Cockeysville, Md.), supplemented with hemin (10 μg/ml, Sigma, St. Louis, Mo.) and NAD (10 μg/ml, Sigma, St. Louis, Mo.), and allowed to grow overnight. In the morning, 1/10 volume of the overnight culture was transferred to fresh medium and incubated for 3-hours. The subculture was then washed twice with 10 mM sodium phosphate and the O.D. at 620 nm was determined. For the S. pneumoniae serotypes 3 and 6B (generous gift of Dr. Xin-Xing Gu), a 50 μl aliquot of the -80° C. stock was thawed on ice, added to 10 ml of Todd-Hewitt broth (THB, Becton Dickinson, Cockeysville, Md.) and cultured overnight. One tenth of the volume of the overnight culture was then transferred to fresh medium and incubated for 3-hours. The subculture was then washed twice with 10 mM sodium phosphate and the O.D. at 620 nm was determined. The radial assay method of […] and coworkers was used, with minor modifications ([…] et al., 1991). The subcultured bacteria (4×10^6 CFU/10 ml underlay gel) were mixed with melted underlay gel at 42° C. (0.1×culture broth-BHI for NTHi and Moraxella and THB for S. pneumoniae-10 mM sodium phosphate, 0.8% low electroendosmosis (EEO)-type agarose) and poured into 8 cm×8 cm square petri plates. The gel was allowed to solidify in the petri plates and wells were punched out with a calibrated 200 μl micropipette tip, cut off at the 50 μl mark (approximately 3 mm). The antimicrobial peptides and proteins were dissolved in 0.01% acetic acid and 4 μl was added to each well. The plates were then incubated for 3 hours at 37° C. in the 5% CO2 incubator. They were next overlaid with the overlay gel (0.5×culture broth, 10 mM sodium phosphate, 0.8% low EEO-type agarose) and covered. The plates were then allowed to incubate overnight at 37° C. in a 5% CO2. The diameter of the zones of inhibition produced by each of the antimicrobial molecules against the OM pathogens (NTHi, M. catarrhalis and S. pneumoniae) was then measured in three separate experiments and the average and standard deviation were calculated. Physiologically, salt concentrations vary depending on the site. However, typically they can be as high as 150 mM. Thus, the salt sensitivity of the antimicrobial molecules was tested. NaCl was added to the gel in Example 2 to obtain a final concentration of 100 mM.

[1] = tested on: M. catarrhalis strain 035E; type: cell-based, Moraxella catarrhalis; conditions: for effect of salt on the growth inhibitory effect against M. catarrhalis: 100 mM NaCl in gel; for Diameter of the inhibition zone, M. catarrhalis: no added NaCl, average of 3 experiments ± SD
Description: as §1

S. pneumoniae serotype 3 [2] = type: cell-based, Streptococcus pneumoniae; conditions: for effect of salt on the growth inhibitory effect against S. pneumoniae serotype 3: 100 mM NaCl in gel
Description: as §1

[3] = tested on: S. pneumoniae serotype 6B; type: cell-based, Streptococcus pneumoniae; conditions: for effect of salt on the growth inhibitory effect against S. pneumoniae serotype 6B: 100 mM NaCl in gel
Description: as §1

[4] = tested on: non-typeable Haemophilus influenzae (NTHi); type: cell-based; conditions: 10 μg/ml
Description: The ability of a few of these innate immune mediators: human milk lysozyme (Lz), human β-defensins (HBD) 1 and 2 and human milk lactoferrin (LF) to inhibit the growth of non-typeable Haemophilus influenzae (NTHi) at other concentrations was also investigated using a different type of assay, a colony formation assay. The molecules were tested separately, as well as in combination, and the effect on NTHi growth was determined using a colony formation assay. […] In previous studies, it was shown that the concentration of lysozyme in middle ear effusion can be as high as 3.7 mg/ml and thus the concentrations used in these studies are well within the physiological range. Incubating the bacteria with 10 μg/ml of either human β-defensin 1 or 2 produced an even more pronounced effect, with close to a 95% reduction in the number of colonies. […] For example, the bacteria may be more sensitive to the antimicrobials in a liquid assay, such as the colony forming assay.

NTHi = test: ultrastructural analysis (electron microscopy); type: cell-based, nontypeable Haemophilus influenzae
Description: (§2) […] The bacterial pellets were left in the fixative at 4° C. for 2 hr, post-fixed in 2% osmium tetroxide, dehydrated in ethanol and embedded in Eponate 12 (Ted Pella, Redding, Calif.). Sections were mounted in coated specimen grids, contrasted with uranyl acetate and lead citrate and examined in a transmission electron microscope (CM120 BioTwin, FEI-Philips, Hillsboro, Oreg.) operating at 80 kV. Images were recorded on photographic film and were subsequently digitized.

S. pneumoniae serotype 3 [5] = test: ultrastructural analysis (electron microscopy); type: cell-based, Streptococcus pneumoniae; conditions: three-hour treatment
Description: (§3) Electron microscopy was performed by treating the bacterial cultures with antimicrobial protein or peptide for 3 hours, mixing with an equal volume of 5% buffered glutaradehyde (pH 7.4) and centrifuging (5000×g, for 20 minutes). The bacterial pellets were left in the fixative at 4° C. for 2 hr, post-fixed in 2% osmium tetroxide, dehydrated in ethanol and embedded in Eponate 12 (Ted Pella, Redding, Calif.). Sections were mounted in coated specimen grids, contrasted with uranyl acetate and lead citrate and examined in a transmission electron microscope (CM120 BioTwin, FEI-Philips, Hillsboro, Oreg.) operating at 80 kV. Images were recorded on photographic film and were subsequently digitized.

[6] = tested on: S. pneumoniae serotype 6B; test: ultrastructural analysis (electron microscopy); type: cell-based, Streptococcus pneumoniae; conditions: 10 μg/ml, three-hour treatment
Description: as §3

M. catarrhalis = test: ultrastructural analysis (electron microscopy); type: cell-based, Moraxella catarrhalis
Description: as §2

[7] = 4 and 10 μg, equivalent to 1 and 2.5 mg/ml
[8] = 40 μg per well, equivalent to 10 mg/ml

“GIGDPVTCLKSGAICHPVFCPRRYKQIGTCGLPGTKCCKKP (disulfide 8-37, 15-30, 20-38) [HBD-2, β-defensin 2]” was tested, and the “effect of salt on the growth inhibitory effect against NTHi” value (NTHi strain12) was “did not inhibit the activity”, the “effect on growth of NTHi” value (NTHi strain12; [7]) was “significantly inhibited the growth” and the “effect of salt on the growth inhibitory effect against M. catarrhalis” value [1] was “did not inhibit the activity”. The “effect on growth of M. catarrhalis” value [1, 7] was “significantly inhibited the growth”, the “effect of salt on the growth inhibitory effect against S. pneumoniae serotype 3” value (S. pneumoniae serotype 3 [2]) was “blocked the effect” and the “effect on growth of S. pneumoniae serotype 3” value (S. pneumoniae serotype 3 [2]; [7]) was “significantly inhibited the growth”. For the same substance, the “effect of salt on the growth inhibitory effect against S. pneumoniae serotype 6B” value [3] was “blocked the effect”, the “effect on growth of S. pneumoniae serotype 6B” value [3, 7] was “significantly inhibited the growth” and the “reduction in the number of colonies” value [4] was about 95%. The “ultrastructural changes of NTHi” value (NTHi; 10 μg/ml, 3 hours) was “blebbing of the membranes with extrusion of the cytoplasmic contents into the blebs”, the “ultrastructural changes of NTHi” value (NTHi; 10 μg/ml, 3 hours, listed as human β-defensin 2) was “Morphological changes were also apparent” and the “ultrastructural changes of S. pneumoniae serotype 3” value (S. pneumoniae serotype 3 [5]; 10 μg/ml) was “disappearance of the capsule in certain regions and the lysis of the bacteria”. The “ultrastructural changes of S. pneumoniae serotype 6B” value [6] was “damage to the capsule and condensation of the cytoplasmic material” and the “ultrastructural changes of M. catarrhalis” value (M. catarrhalis; 30-minute incubation) was “substantial damage to the cells”.

With “β-defensin 1 (GNFLTGLGHRSDHYNCVSSGGQCLYSACPIFTKIQGTCYRGKAKCCK; not fully specified; cysteine pairing not given here) [HBD-1, human beta defensin 1, cationic antimicrobial peptide produced by epithelial cells]” the “effect of salt on the growth inhibitory effect against NTHi” value (NTHi strain12) was “completely blocked”, the “Diameter of the inhibition zone, M. catarrhalis” value ([1]; 10 μg in 4 μl per well) was 7.7 ± 0.6 mm and the “effect of salt on the growth inhibitory effect against M. catarrhalis” value [1] was “completely blocked”. The “effect on growth of M. catarrhalis” value ([1]; high dose, 10 μg, equivalent to 2.5 mg/ml) was “effective”, the “effect of salt on the growth inhibitory effect against S. pneumoniae serotype 3” value (S. pneumoniae serotype 3 [2]) was “completely blocked” and the “effect of salt on the growth inhibitory effect against S. pneumoniae serotype 6B” value [3] was “completely blocked”. The “reduction in the number of colonies” value [4] was about 95% and the “ultrastructural changes of NTHi” value (NTHi; 10 μg/ml, 3 hours) was “Morphological changes were also apparent”.

In the case of human lysozyme [hLz], the “effect of salt on the growth inhibitory effect against NTHi” value (NTHi strain12) was “completely blocked”, the “effect on growth of NTHi” value (NTHi strain12; dose not given) was “no effect” and the “Diameter of the inhibition zone, M. catarrhalis” value ([1]; 40 μg in 4 μl per well) was 4 ± 1.7 mm. The “effect on growth of M. catarrhalis” value [1, 8] was “slight but visible inhibition”, the “effect of salt on the growth inhibitory effect against M. catarrhalis” value [1] was “completely blocked” and the “effect of salt on the growth inhibitory effect against S. pneumoniae serotype 3” value (S. pneumoniae serotype 3 [2]) was “completely blocked”. For the same substance, the “effect on growth of S. pneumoniae serotype 3” value (S. pneumoniae serotype 3 [2]; dose not given) was “appeared to enhance the growth”, the “Diameter of the inhibition zone, S. pneumoniae 6B” value ([3]; 40 μg in 4 μl per well, no added NaCl, average of 3 experiments ± SD) was 5 ± 1.7 mm and the “effect on growth of S. pneumoniae serotype 6B” value [3, 8] was “slight but visible inhibition”. For the same substance, the “effect of salt on the growth inhibitory effect against S. pneumoniae serotype 6B” value [3] was “completely blocked”, the “ultrastructural changes of NTHi” value (NTHi; 100 μg/ml, 3 hour) was “Few completely lysed bacteria were observed” and the “ultrastructural changes of NTHi” value (NTHi; 100 μg/ml, 3 hour, listed as human milk lysozyme) was “extrusion of the outer membrane could clearly be seen”. The “ultrastructural changes of NTHi” value (NTHi; 1 mg/ml, 3 hour) was “blebbing of the membranes with extrusion of the cytoplasmic contents into the blebs”, the “ultrastructural changes of NTHi, one hour compared with 3 hours” value (NTHi; one hour treatment) was “similar” and the “ultrastructural changes of S. pneumoniae serotype 3” value (S. pneumoniae serotype 3 [5]; 1 mg/ml) was “many fewer bacteria appear to be lysed”. For the same substance, the “ultrastructural changes of M. catarrhalis” value (M. catarrhalis; 1-minute treatment) was “formation of blebs”.
